This note sets out measurements from ChEMBL document CHEMBL1158171, “Bioactivities of a series of phosphodiesterase type 5 (PDE-5) inhibitors as modelled by MIA-QSAR” (Eur J Med Chem, 2008).

One data set has as its target cGMP-specific 3',5'-cyclic phosphodiesterase (Homo sapiens, UniProt O76074).
In general, IC50 refers to the concentration needed to halve the response being measured. Read a high IC50 as lower potency. `CCN1C(=O)C2C(N=C(OC)N2Cc2ccc(OC)c(Cl)c2)N2C[C@@H](Cc3ccccc3)N=C12` (some centres undefined) showed an IC50 of 1.58 nM.

In turn, `CCN1C(=O)C2C(N=CN2Cc2ccc(O)c(Br)c2)N2C1=N[C@@H]1CCC[C@@H]12` (some centres undefined) showed a half-maximal inhibitory concentration (IC50) of 6.31 nM.

Test system in another data set: not listed separately
Nature of the data set: Octanol-water partition coefficient, log P of the compound. Type of data set: physicochemical.
Usually logP stands for a log measure of how a compound divides between an organic and an aqueous phase. Molecule `CCN1C(=O)c2c(nc(C(N)=O)n2Cc2ccc(O)c(Br)c2)N2C1=N[C@@H]1CCC[C@@H]12` came in with a logP of 3.03.

Molecule `CCSc1nc2c(n1Cc1ccc(O)cc1)C(=O)N(CC)C1=N[C@@H]3CCC[C@@H]3N12` gave a lipophilicity (logP) of 4.41.

As for `CCN1C(=O)c2c(nc(C#Cc3ccccc3)n2Cc2ccc(O)cc2)N2C1=N[C@@H]1CCC[C@@H]12`, the log partition coefficient (logP) turned out to be 5.24.

The molecule `CCN1C(=O)c2c(nc(Cc3ccccc3)n2Cc2ccc(C)cc2)N2C1=N[C@@H]1CCC[C@@H]12` displayed a logP of 5.95.

In the case of `CCN1C(=O)c2c(nc(C(=O)OC)n2Cc2ccc(OC)cc2)N2C1=N[C@@H]1CCC[C@@H]12`, the lipophilicity (logP) is 3.38.

Turning to `CCOc1nc2c(n1Cc1ccc(OC)c(Br)c1)C(=O)N(CC)C1=N[C@@H]3CCC[C@@H]3N12`, the logP is 4.93.

`CCN1C(=O)c2c(nc(C(=O)NC)n2Cc2ccc(OC)c(Cl)c2)N2C1=N[C@@H]1CCC[C@@H]12` yielded a logP of 3.26.

As to `CCN1C(=O)c2c(nc(C(F)(F)F)n2Cc2ccc(O)cc2)N2C1=N[C@@H]1CCC[C@@H]12`, the lipophilicity (logP) was 4.22.

`CCN1C(=O)c2c(nc(OC)n2Cc2ccc(OC)c(Br)c2)N2C1=N[C@@H]1CCC[C@@H]12` registered a logP of 4.59.

In turn, `CCN1C(=O)c2c(nc(C(=O)NC)n2Cc2ccc(O)c(Cl)c2)N2C1=N[C@@H]1CCC[C@@H]12` showed a logP of 3.

Regarding `CCN1C(=O)c2c(nc(C#Cc3ccccc3)n2Cc2ccc(Cl)cc2)N2C1=N[C@@H]1CCC[C@@H]12`, the logP amounted to 6.19.

In turn, `CCN1C(=O)c2c(nc(C#N)n2Cc2ccc(OC)cc2)N2C1=N[C@@H]1CCC[C@@H]12` yielded a lipophilicity (logP) of 3.59.

On to `CCN1C(=O)c2c(nc(Cc3ccccc3)n2Cc2ccc(Cl)cc2)N2C1=N[C@@H]1CCC[C@@H]12`, for which the logP turned out to be 6.03.

The molecule `CCN1C(=O)c2c(ncn2Cc2ccc(OC)c(Br)c2)N2C1=N[C@@H]1CCC[C@@H]12` came in with a logP of 3.74.

The molecule `CCN1C(=O)c2c(nc(OC)n2Cc2ccc(O)c(Cl)c2)N2C[C@@H](Cc3ccccc3)N=C12` came in with a logP of 5.36.

Consider `CCN1C(=O)c2c(nc(C(N)=O)n2Cc2ccc(O)c(Cl)c2)N2C[C@@H](Cc3ccccc3)N=C12`, for which the logP worked out at 4.06.

As for `CCN1C(=O)c2c(nc(Cc3ccccc3)n2Cc2ccc(OC)c(Cl)c2)N2C1=N[C@@H]1CCC[C@@H]12`, the log partition coefficient (logP) was 5.9.

On to `CCN1C(=O)c2c(nc(OC)n2Cc2ccc(O)c(Br)c2)N2C[C@@H](Cc3ccccc3)N=C12`, for which the logP was 5.63.

As to `CCN1C(=O)c2c(nc(Cc3ccccc3)n2Cc2ccccc2)N2C1=N[C@@H]1CCC[C@@H]12`, the logP is 5.47.

On to `CCN1C(=O)c2c(nc(C(N)=O)n2Cc2ccc(OC)c(Br)c2)N2C1=N[C@@H]1CCC[C@@H]12`, for which the log partition coefficient (logP) came out at 3.3.

The molecule `CCN1C(=O)c2c(nc(C(N)=O)n2Cc2ccc(OC)cc2)N2C1=N[C@@H]1CCC[C@@H]12` displayed a logP of 2.47.

In the case of `CCSc1nc2c(n1Cc1ccc(OC)cc1)C(=O)N(CC)C1=N[C@@H]3CCC[C@@H]3N12`, the log partition coefficient (logP) stood at 4.67.

For the molecule `CCN1C(=O)c2c(nc(OC)n2Cc2ccc(O)c(Cl)c2)N2C1=N[C@@H]1CCC[C@@H]12`, the lipophilicity (logP) is 4.06.

The molecule `CCN1C(=O)c2c(nc(C#Cc3ccccc3)n2Cc2ccc(OC)cc2)N2C1=N[C@@H]1CCC[C@@H]12` displayed a log partition coefficient (logP) of 5.5.

For the molecule `CCN1C(=O)c2c(nc(OC)n2Cc2ccc(OC)c(Br)c2)N2C[C@@H](Cc3ccccc3)N=C12`, the lipophilicity (logP) was found to be 5.89.

`CCN1C(=O)c2c(nc(C(N)=O)n2Cc2ccc(OC)c(Cl)c2)N2C[C@@H](Cc3ccccc3)N=C12` came in with a log partition coefficient (logP) of 4.32.

Molecule `CCN1C(=O)c2c(nc(C(N)=O)n2Cc2ccc(O)cc2)N2C1=N[C@@H]1CCC[C@@H]12` yielded a lipophilicity (logP) of 2.2.

Turning to `CCN1C(=O)c2c(ncn2Cc2ccc(OC)c(Cl)c2)N2C1=N[C@@H]1CCC[C@@H]12`, the logP came out at 3.47.

As to `CCOc1nc2c(n1Cc1ccc(OC)cc1)C(=O)N(CC)C1=N[C@@H]3CCC[C@@H]3N12`, the logP amounted to 4.1.

`CCOc1nc2c(n1Cc1ccc(O)c(Cl)c1)C(=O)N(CC)C1=N[C@@H]3CCC[C@@H]3N12` displayed a logP of 4.4.

The molecule `CCN1C(=O)c2c(nc(OC)n2Cc2ccc(OC)c(C#N)c2)N2C[C@@H](Cc3ccccc3)N=C12` had a logP of 5.1.

For `CCN1C(=O)c2c(nc(C(N)=O)n2Cc2ccc(O)c(Cl)c2)N2C1=N[C@@H]1CCC[C@@H]12`, the log partition coefficient (logP) worked out at 2.76.

With `CCN1C(=O)c2c(nc(OCc3ccccc3)n2Cc2ccc(O)c(Cl)c2)N2C[C@@H](Cc3ccccc3)N=C12`, the logP turned out to be 7.09.

`CCOc1nc2c(n1Cc1ccc(OC)c(Cl)c1)C(=O)N(CC)C1=N[C@@H]3CCC[C@@H]3N12` yielded a lipophilicity (logP) of 4.66.

As for `CCN1C(=O)c2c(nc(OC)n2Cc2ccc(O)c(Br)c2)N2C1=N[C@@H]1CCC[C@@H]12`, the logP came to 4.33.

In turn, `CCN1C(=O)c2c(nc(Cc3ccccc3)n2Cc2ccc3c(c2)OCO3)N2C1=N[C@@H]1CCC[C@@H]12` registered a logP of 5.25.

On to `CCN1C(=O)c2c(nc(OC)n2Cc2ccc(OC)c(Cl)c2)N2C1=N[C@@H]1CCC[C@@H]12`, for which the logP turned out to be 4.32.
